Patent publication US12365651B2, “Use of pirfenidone and derivatives for modulation of B lymphocyte activity and organ protection from acute tissue damage” (Washington University, priority 2017, dated 2025)
Where “and” joins values, the source holds several entries; their conditions need not be identical. Identical values can stand only once.

Columns and labels:
[1] = system: Peritoneal derived inflammatory cells; assay: In vitro immunomodulatory effect of tested PEG compounds (CD86 on CD19+ cells, LPS); format: cell-based, mouse; conditions: potency in molarity; toxicity by visual inspection and DAPI staining (FIG. 11D)
Procedure: Peritoneal derived inflammatory cells were collected on day for post intraperitoneal injection of Thyoglicollate. Cells were cultured for 24 h in baseline condition (control), in the presence of LPS 100 ng/ml (LPS) or in the presence of LPS 100 ng/ml and various concentrations of different forms of Pegylated Pirfenidone (named C2 and C3 in FIG. 11A and C4 to C6 in FIG. 11B)). After the 24 h in culture cells were collected and analyzed via flow cytometry to assess the expression of CD86 on CD19+ cells (B lymphocytes). […] FIG. 11C reports the molecular weights of the tested forms of PEGylated Pirfenidone and the molecular weight (MW) ration between the tested compound and Pirfenidone).

[2] = Plasma pharmacokinetics after IV or PO administration; format: in vivo; conditions: SD Rat, 96 mg/kg
[3] = as above; format: in vivo, SD Rat
Procedure: Pirfenidone and Pegyonde-6 were administered at equimolar concentrations to rats IV or per os (PO) and serum concentrations measured at different time points to measure pharmacokinetic parameters. The drugs were solubilized in 5% Alcohol+20% PEG 300 in saline.

[4] = SD Rat, IV 96 mg/kg, individual rats 4-6, 96 mg/kg
[5] = SD Rat, PO 96 mg/kg, individual rats 10-12, 96 mg/kg

Question: With `COCCOCCOCCOCCOCCOCc1ccc(-n2cc(C)ccc2=O)cc1` [PEG-Pirfenidone] as the compound, how does the “relative potency to Pirfenidone and in vitro toxicity” value [1] read?
Answer: superior to the other tested variants

Question: And the “Plasma concentrations of PEG-Pirfenidone” value ([2]; IV 96 mg/kg, 0.083 h, individual rats 4-6)?
Answer: 44227 ng/mL and 56484 ng/mL and 96487 ng/mL

Question: And the “Plasma concentrations of PEG-Pirfenidone” value ([2]; IV 96 mg/kg, 0.5 h, individual rats 4-6)?
Answer: 13073 ng/mL and 18584 ng/mL and 19790 ng/mL

Question: What about the “Plasma concentrations of PEG-Pirfenidone” value ([2]; PO 96 mg/kg, 2 h, individual rats 10-12) of the same compound?
Answer: 219 ng/mL and 885 ng/mL and 217 ng/mL

Question: What about the “AUC0-t, Mean” value ([3]; SD Rat, IV 96 mg/kg) of the same compound?
Answer: 34197 ng·h/mL

Question: What about the “AUC0-∞, Mean” value ([3]; SD Rat, IV 96 mg/kg) of the same compound?
Answer: 34229 ng·h/mL

Question: And the “AUMC0-t, Mean” value ([3]; SD Rat, IV 96 mg/kg)?
Answer: 18176 h*h*ng/mL

Question: And the “AUMC0—∞, Mean” value ([3]; SD Rat, IV 96 mg/kg)?
Answer: 18540 h*h*ng/mL

Question: And the “CL(/F), Mean” value ([3]; SD Rat, IV 96 mg/kg)?
Answer: 48.72 mL/min/kg

Question: What about the “Cmax, Mean” value ([3]; SD Rat, IV 96 mg/kg) of the same compound?
Answer: 65733 ng/mL

Question: What about the “MRTINF, Mean” value ([3]; SD Rat, IV 96 mg/kg) of the same compound?
Answer: 33.8 min

Question: And the “T1/2, Mean” value ([3]; SD Rat, IV 96 mg/kg)?
Answer: 79.8 min

Question: What about the “Tmax, Mean” value ([3]; SD Rat, IV 96 mg/kg) of the same compound?
Answer: 4.98 min

Question: And the “Vss (/F), Mean” value ([3]; SD Rat, IV 96 mg/kg)?
Answer: 1.7 L/kg

Question: What about the “Plasma concentrations of PEG-Pirfenidone, Mean” value (from here on “Plasma concentrations … Mean”) ([3]; SD Rat, IV 96 mg/kg, 0.083 h) of the same compound?
Answer: 65733 ng/mL

Question: What about the “Plasma concentrations … Mean” value ([3]; SD Rat, IV 96 mg/kg, 0.25 h) of the same compound?
Answer: 41336 ng/mL

Question: And the “Plasma concentrations of PEG-Pirfenidone” value ([3]; SD Rat, IV 96 mg/kg, 0.25 h, individual rats 4-6, 96 mg/kg)?
Answer: 27605 ng/mL and 35059 ng/mL and 61343 ng/mL

Question: What about the “Plasma concentrations … Mean” value ([3]; SD Rat, IV 96 mg/kg, 0.5 h) of the same compound?
Answer: 17149 ng/mL

Question: What about the “Plasma concentrations … Mean” value ([3]; SD Rat, IV 96 mg/kg, 1 h) of the same compound?
Answer: 6090 ng/mL

Question: What about the “Plasma concentrations of PEG-Pirfenidone” value ([3]; SD Rat, IV 96 mg/kg, 1 h, individual rats 4-6, 96 mg/kg) of the same compound?
Answer: 5974 ng/mL and 6543 ng/mL and 5755 ng/mL

Question: And the “Plasma concentrations … Mean” value ([3]; SD Rat, IV 96 mg/kg, 2 h)?
Answer: 1533 ng/mL

Question: And the “Plasma concentrations of PEG-Pirfenidone” value ([3]; SD Rat, IV 96 mg/kg, 2 h, individual rats 4-6, 96 mg/kg)?
Answer: 1786 ng/mL and 2091 ng/mL and 721 ng/mL

Question: And the “Plasma concentrations … Mean” value ([3]; SD Rat, IV 96 mg/kg, 4 h)?
Answer: 183 ng/mL

Question: What about the “Plasma concentrations of PEG-Pirfenidone” value ([3]; SD Rat, IV 96 mg/kg, 4 h, individual rats 4-6, 96 mg/kg) of the same compound?
Answer: 216 ng/mL and 156 ng/mL and 178 ng/mL

Question: And the “Plasma concentrations … Mean” value ([3]; SD Rat, IV 96 mg/kg, 8 h)?
Answer: 20.3 ng/mL

Question: What about the “Plasma concentrations of PEG-Pirfenidone” value ([3]; SD Rat, IV 96 mg/kg, 8 h, individual rats 4-6, 96 mg/kg) of the same compound?
Answer: 12.9 ng/mL and 11.5 ng/mL and 36.3 ng/mL

Question: And the “Plasma concentrations … Mean” value ([3]; SD Rat, IV 96 mg/kg, 24 h)?
Answer: 2.97 ng/mL

Question: And the “Plasma concentrations of PEG-Pirfenidone” value ([3]; SD Rat, IV 96 mg/kg, 24 h, individual rats 4-6, 96 mg/kg)?
Answer: BLOQ (Below lower limit of quantification (1 ng/mL)) (2×) and 2.97 ng/ml

Question: And the Tmax ([3]; SD Rat, IV 96 mg/kg, individual rats 4-6)?
Answer: 4.98 min

Question: And the AUC0-t [3, 4]?
Answer: 26338 ng·h/mL and 32960 ng·h/mL and 43292 ng·h/mL

Question: What about the “AUC0-∞” value [3, 4] of the same compound?
Answer: 26353 ng·h/mL and 32968 ng·h/mL and 43367 ng·h/mL

Question: What about the AUMC0-t [3, 4] of the same compound?
Answer: 16980 h*h*ng/mL and 20439 h*h*ng/mL and 17108 h*h*ng/mL

Question: What about the “AUMC0—∞” value [3, 4] of the same compound?
Answer: 17118 h*h*ng/mL and 20640 h*h*ng/mL and 17863 h*h*ng/mL

Question: What about the “CL(/F)” value [3, 4] of the same compound?
Answer: 60.72 mL/min/kg and 48.53 mL/min/kg and 36.9 mL/min/kg

Question: And the Cmax [3, 4]?
Answer: 44227 ng/mL and 56484 ng/mL and 96487 ng/mL

Question: And the MRTINF [3, 4]?
Answer: 39 min and 37.6 min and 24.7 min

Question: What about the T1/2 [3, 4] of the same compound?
Answer: 48.2 min and 106 min and 85.8 min

Question: And the “Vss (/F)” value [3, 4]?
Answer: 2.366 L/kg and 1.823 L/kg and 0.912 L/kg

Question: And the “AUC0-t, Mean” value ([3]; SD Rat, PO 96 mg/kg)?
Answer: 16811 ng·h/mL

Question: What about the “AUC0-∞, Mean” value ([3]; SD Rat, PO 96 mg/kg) of the same compound?
Answer: 16838 ng·h/mL

Question: And the “AUMC0-t, Mean” value ([3]; SD Rat, PO 96 mg/kg)?
Answer: 10264 h*h*ng/mL

Question: What about the “AUMC0—∞, Mean” value ([3]; SD Rat, PO 96 mg/kg) of the same compound?
Answer: 10527 h*h*ng/mL

Question: What about the “Cmax, Mean” value ([3]; SD Rat, PO 96 mg/kg) of the same compound?
Answer: 23584 ng/mL

Question: And the “MRTINF, Mean” value ([3]; SD Rat, PO 96 mg/kg)?
Answer: 37.6 min

Question: And the “T1/2, Mean” value ([3]; SD Rat, PO 96 mg/kg)?
Answer: 70.8 min

Question: What about the “Tmax, Mean” value ([3]; SD Rat, PO 96 mg/kg) of the same compound?
Answer: 15 min

Question: And the F % ([3]; SD Rat, PO 96 mg/kg vs IV 96 mg/kg)?
Answer: 49.16%

Question: What about the “Plasma concentrations … Mean” value ([3]; SD Rat, PO 96 mg/kg, 0.25 h) of the same compound?
Answer: 23584 ng/mL

Question: What about the “Plasma concentrations of PEG-Pirfenidone” value ([3]; SD Rat, PO 96 mg/kg, 0.25 h, individual rats 10-12, 96 mg/kg) of the same compound?
Answer: 8298 ng/mL and 40817 ng/mL and 21638 ng/mL

Question: What about the “Plasma concentrations … Mean” value ([3]; SD Rat, PO 96 mg/kg, 0.5 h) of the same compound?
Answer: 19224 ng/mL

Question: And the “Plasma concentrations of PEG-Pirfenidone” value ([3]; SD Rat, PO 96 mg/kg, 0.5 h, individual rats 10-12, 96 mg/kg)?
Answer: 3977 ng/mL and 35217 ng/mL and 18477 ng/mL

Question: What about the “Plasma concentrations … Mean” value ([3]; SD Rat, PO 96 mg/kg, 1 h) of the same compound?
Answer: 3748 ng/mL

Question: What about the “Plasma concentrations of PEG-Pirfenidone” value ([3]; SD Rat, PO 96 mg/kg, 1 h, individual rats 10-12, 96 mg/kg) of the same compound?
Answer: 1157 ng/mL and 7033 ng/mL and 3053 ng/mL

Question: What about the “Plasma concentrations … Mean” value ([3]; SD Rat, PO 96 mg/kg, 2 h) of the same compound?
Answer: 440 ng/mL

Question: What about the “Plasma concentrations … Mean” value ([3]; SD Rat, PO 96 mg/kg, 4 h) of the same compound?
Answer: 69 ng/mL

Question: What about the “Plasma concentrations of PEG-Pirfenidone” value ([3]; SD Rat, PO 96 mg/kg, 4 h, individual rats 10-12, 96 mg/kg) of the same compound?
Answer: 28.4 ng/mL and 129 ng/mL and 48.8 ng/mL

Question: What about the “Plasma concentrations … Mean” value ([3]; SD Rat, PO 96 mg/kg, 8 h) of the same compound?
Answer: 14 ng/mL

Question: What about the “Plasma concentrations of PEG-Pirfenidone” value ([3]; SD Rat, PO 96 mg/kg, 8 h, individual rats 10-12, 96 mg/kg) of the same compound?
Answer: 3.09 ng/mL and 33.4 ng/mL and 6.16 ng/mL

Question: What about the “Plasma concentrations of PEG-Pirfenidone” value ([3]; SD Rat, PO 96 mg/kg, 24 h, individual rats 10-12) of the same compound?
Answer: BLOQ (Below lower limit of quantification (1 ng/mL))

Question: What about the Tmax ([3]; SD Rat, PO 96 mg/kg, individual rats 10-12) of the same compound?
Answer: 15 min

Question: What about the AUC0-t [3, 5] of the same compound?
Answer: 4853 ng·h/mL and 30468 ng·h/mL and 15112 ng·h/mL

Question: And the “AUC0-∞” value [3, 5]?
Answer: 4858 ng·h/mL and 30533 ng·h/mL and 15123 ng·h/mL

Question: And the AUMC0-t [3, 5]?
Answer: 3178 h*h*ng/mL and 19172 h*h*ng/mL and 8441 h*h*ng/mL

Question: And the “AUMC0—∞” value [3, 5]?
Answer: 3221 h*h*ng/mL and 19815 h*h*ng/mL and 8544 h*h*ng/mL

Question: What about the Cmax [3, 5] of the same compound?
Answer: 8298 ng/mL and 40817 ng/mL and 21638 ng/mL

Question: And the MRTINF [3, 5]?
Answer: 39.8 min and 38.9 min and 33.9 min

Question: And the T1/2 [3, 5]?
Answer: 60.6 min and 80.4 min and 71.4 min

Question: What about the “half-life compared with Pirfenidone” value ([3]; rats, equimolar, after both IV and PO administration) of the same compound?
Answer: longer half-life than Pirfenidone
